Measurements from ChEMBL document CHEMBL1201862, “PubChem BioAssay data set” (2004).
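Results reflect a 48-hour exposure of cells in 96-well plates to compound at five concentrations. GI50: concentration for 50% inhibition of growth.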 The source made the active and inactive calls. No stated cut-off is given here; in the data, active = GI50 up to about 1.1 µM and inactive = higher.

Assays:
Assay in all cases: NCI-60 cell line screen, 48 h
A498 = tested on: A498
SR = tested on: SR
SW-620 = tested on: SW-620
KM12 = tested on: KM12
IGROV-1 = tested on: IGROV-1
NCI-H460 = tested on: NCI-H460
ACHN = tested on: ACHN
EKVX = tested on: EKVX
OVCAR-8 = tested on: OVCAR-8
U-251 = tested on: U-251
SF-295 = tested on: SF-295
OVCAR-3 = tested on: OVCAR-3
NCI-H522 = tested on: NCI-H522
NCI-H226 = tested on: NCI-H226
SF-539 = tested on: SF-539
786-0 = tested on: 786-0
MOLT-4 = tested on: MOLT-4
CAKI-1 = tested on: CAKI-1
LOX IMVI = tested on: LOX IMVI
SK-MEL-5 = tested on: SK-MEL-5

## N#Cc1ccsc1Nc1ccccc1[N+](=O)[O-]
A498
  GI50: > 100 µM (inactive)
SR
  GI50: > 100 µM (inactive)
SW-620
  GI50: > 100 µM (inactive)
KM12
  GI50: > 100 µM (inactive)
IGROV-1
  GI50: > 100 µM (inactive)
NCI-H460
  GI50: > 100 µM (inactive)
ACHN
  GI50: > 100 µM (inactive)
EKVX
  GI50: 36.6 µM (inactive)
OVCAR-8
  GI50: > 100 µM (inactive)
U-251
  GI50: 72.9 µM (inactive)
SF-295
  GI50: 64.1 µM (inactive)
OVCAR-3
  GI50: > 100 µM (inactive)
NCI-H522
  GI50: 63.7 µM (inactive)
NCI-H226
  GI50: > 100 µM (inactive)
SF-539
  GI50: > 100 µM (inactive)
786-0
  GI50: > 100 µM (inactive)
MOLT-4
  GI50: > 100 µM (inactive)
CAKI-1
  GI50: > 100 µM (inactive)

## O=c1cc(-c2ccccc2)nc2[nH]ccn12
A498
  GI50: > 10 µM (inactive)
SR
  GI50: > 10 µM (inactive)
SW-620
  GI50: > 10 µM (inactive)
KM12
  GI50: > 10 µM (inactive)
IGROV-1
  GI50: > 10 µM (inactive)
NCI-H460
  GI50: > 10 µM (inactive)
ACHN
  GI50: > 10 µM (inactive)
EKVX
  GI50: > 10 µM (inactive)
OVCAR-8
  GI50: > 10 µM (inactive)
LOX IMVI
  GI50: > 10 µM (inactive)
U-251
  GI50: > 10 µM (inactive)
SF-295
  GI50: > 10 µM (inactive)
OVCAR-3
  GI50: > 10 µM (inactive)
NCI-H522
  GI50: > 10 µM (inactive)
SK-MEL-5
  GI50: > 10 µM (inactive)
NCI-H226
  GI50: > 10 µM (inactive)
SF-539
  GI50: > 10 µM (inactive)
MOLT-4
  GI50: > 10 µM (inactive)
CAKI-1
  GI50: > 10 µM (inactive)

## O=C1c2cc3c(cc2CC12Cc1cc4c(cc1C2)CCC4)CCC3
A498
  GI50: > 100 µM (inactive)
SR
  GI50: > 100 µM (inactive)
SW-620
  GI50: > 100 µM (inactive)
KM12
  GI50: > 100 µM (inactive)
IGROV-1
  GI50: > 100 µM (inactive)
NCI-H460
  GI50: > 100 µM (inactive)
ACHN
  GI50: > 100 µM (inactive)
EKVX
  GI50: > 100 µM (inactive)
OVCAR-8
  GI50: > 100 µM (inactive)
LOX IMVI
  GI50: > 100 µM (inactive)
U-251
  GI50: > 100 µM (inactive)
SF-295
  GI50: > 100 µM (inactive)
OVCAR-3
  GI50: > 100 µM (inactive)
NCI-H522
  GI50: > 100 µM (inactive)
SK-MEL-5
  GI50: > 100 µM (inactive)
SF-539
  GI50: > 100 µM (inactive)
786-0
  GI50: > 100 µM (inactive)
MOLT-4
  GI50: 49 µM (inactive)
CAKI-1
  GI50: > 100 µM (inactive)

## Cc1ccc(C(=O)N/N=C2/C(=O)c3c4ccccc4cc4cccc2c34)cc1
A498
  GI50: > 100 µM (inactive)
SR
  GI50: 1.99 µM (inactive)
SW-620
  GI50: 8.71 µM (inactive)
KM12
  GI50: 3.89 µM (inactive)
IGROV-1
  GI50: 15.8 µM (inactive)
NCI-H460
  GI50: 15 µM (inactive)
ACHN
  GI50: 7.82 µM (inactive)
EKVX
  GI50: 40.2 µM (inactive)
OVCAR-8
  GI50: 22.4 µM (inactive)
LOX IMVI
  GI50: 12.4 µM (inactive)
U-251
  GI50: 21 µM (inactive)
SF-295
  GI50: 19.5 µM (inactive)
OVCAR-3
  GI50: 22.5 µM (inactive)
NCI-H522
  GI50: 18 µM (inactive)
SK-MEL-5
  GI50: 27.5 µM (inactive)
NCI-H226
  GI50: > 69.3 µM (inactive)
SF-539
  GI50: 15.5 µM (inactive)
786-0
  GI50: 14.2 µM (inactive)
CAKI-1
  GI50: 25.4 µM (inactive)

## O=C(Nc1ccc(/N=N/c2ccccc2)cc1)Sc1ccccc1C(=O)O
A498
  GI50: > 100 µM (inactive)
SR
  GI50: > 100 µM (inactive)
SW-620
  GI50: > 100 µM (inactive)
KM12
  GI50: > 100 µM (inactive)
IGROV-1
  GI50: 0.7 µM (active)
NCI-H460
  GI50: > 100 µM (inactive)
ACHN
  GI50: > 100 µM (inactive)
EKVX
  GI50: > 100 µM (inactive)
OVCAR-8
  GI50: > 100 µM (inactive)
LOX IMVI
  GI50: > 100 µM (inactive)
U-251
  GI50: > 100 µM (inactive)
SF-295
  GI50: > 100 µM (inactive)
OVCAR-3
  GI50: > 100 µM (inactive)
NCI-H522
  GI50: > 100 µM (inactive)
NCI-H226
  GI50: > 100 µM (inactive)
SF-539
  GI50: > 100 µM (inactive)
786-0
  GI50: > 100 µM (inactive)
MOLT-4
  GI50: > 100 µM (inactive)
CAKI-1
  GI50: > 100 µM (inactive)

## C/C(=N/NC(=O)CC(=O)N(C(=O)c1ccccc1Cl)c1ccc(C)cc1)c1cc2ccccc2oc1=O
A498
  GI50: > 100 µM (inactive)
SR
  GI50: 6.11 µM (inactive)
SW-620
  GI50: > 100 µM (inactive)
KM12
  GI50: > 100 µM (inactive)
IGROV-1
  GI50: > 100 µM (inactive)
NCI-H460
  GI50: > 100 µM (inactive)
ACHN
  GI50: > 100 µM (inactive)
EKVX
  GI50: > 100 µM (inactive)
OVCAR-8
  GI50: > 100 µM (inactive)
LOX IMVI
  GI50: 73.1 µM (inactive)
U-251
  GI50: > 100 µM (inactive)
SF-295
  GI50: > 100 µM (inactive)
OVCAR-3
  GI50: > 100 µM (inactive)
NCI-H522
  GI50: > 100 µM (inactive)
SK-MEL-5
  GI50: 65.3 µM (inactive)
NCI-H226
  GI50: > 100 µM (inactive)
SF-539
  GI50: > 100 µM (inactive)
786-0
  GI50: > 100 µM (inactive)
CAKI-1
  GI50: > 100 µM (inactive)

## O=C1CC2C(=O)N(Cc3ccccc3)C1C(S(=O)(=O)c1ccccc1)C2S(=O)(=O)c1ccccc1 (configuration not stated)
A498
  GI50: 18.3 µM (inactive)
SR
  GI50: 2.48 µM (inactive)
SW-620
  GI50: 0.528 µM (active)
KM12
  GI50: 13.7 µM (inactive)
IGROV-1
  GI50: 20.9 µM (inactive)
NCI-H460
  GI50: 17.7 µM (inactive)
ACHN
  GI50: 1.67 µM (inactive)
OVCAR-8
  GI50: 1.94 µM (inactive)
LOX IMVI
  GI50: 1.68 µM (inactive)
U-251
  GI50: 2.92 µM (inactive)
SF-295
  GI50: 22.6 µM (inactive)
OVCAR-3
  GI50: 1.78 µM (inactive)
NCI-H522
  GI50: 0.363 µM (active)
SK-MEL-5
  GI50: 15.7 µM (inactive)
NCI-H226
  GI50: 13.3 µM (inactive)
SF-539
  GI50: 2.05 µM (inactive)
786-0
  GI50: 2.93 µM (inactive)
MOLT-4
  GI50: 2.55 µM (inactive)
CAKI-1
  GI50: 0.604 µM (active)
